These results are taken from PMC10073293, “Discovery of IHMT-MST1-39 as a novel MST1 kinase inhibitor and AMPK activator for the treatment of diabetes mellitus” (Signal Transduction and Targeted Therapy, 2023).

Molecules are shown by their SMILES.

The target in one experiment is T1, MST2 (Homo sapiens, UniProt Q13188).
T1 construct: gene STK3
T1 sequence (Q13188 1-491): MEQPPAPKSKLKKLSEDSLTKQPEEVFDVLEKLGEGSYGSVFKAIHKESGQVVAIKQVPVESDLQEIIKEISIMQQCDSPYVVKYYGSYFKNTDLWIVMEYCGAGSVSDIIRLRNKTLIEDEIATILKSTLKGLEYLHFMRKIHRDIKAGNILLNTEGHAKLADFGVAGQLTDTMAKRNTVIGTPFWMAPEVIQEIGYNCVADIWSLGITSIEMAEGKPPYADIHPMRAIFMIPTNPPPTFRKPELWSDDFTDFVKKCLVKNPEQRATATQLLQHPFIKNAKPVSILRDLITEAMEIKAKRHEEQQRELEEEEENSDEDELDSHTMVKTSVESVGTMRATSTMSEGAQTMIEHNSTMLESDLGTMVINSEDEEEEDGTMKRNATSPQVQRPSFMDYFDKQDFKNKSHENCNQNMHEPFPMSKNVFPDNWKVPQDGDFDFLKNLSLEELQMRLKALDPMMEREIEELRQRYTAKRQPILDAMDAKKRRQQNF
Nature of the experiment: biochemical kinase assay; KD also determined (Fig. 1c, d); KINOMEscan binding.

Experiment [1] deals with T2, MST1 (mammalian sterile 20-like kinase 1) (Homo sapiens, UniProt Q13043).
T2 construct: gene STK4
T2 sequence (Q13043 whole entry): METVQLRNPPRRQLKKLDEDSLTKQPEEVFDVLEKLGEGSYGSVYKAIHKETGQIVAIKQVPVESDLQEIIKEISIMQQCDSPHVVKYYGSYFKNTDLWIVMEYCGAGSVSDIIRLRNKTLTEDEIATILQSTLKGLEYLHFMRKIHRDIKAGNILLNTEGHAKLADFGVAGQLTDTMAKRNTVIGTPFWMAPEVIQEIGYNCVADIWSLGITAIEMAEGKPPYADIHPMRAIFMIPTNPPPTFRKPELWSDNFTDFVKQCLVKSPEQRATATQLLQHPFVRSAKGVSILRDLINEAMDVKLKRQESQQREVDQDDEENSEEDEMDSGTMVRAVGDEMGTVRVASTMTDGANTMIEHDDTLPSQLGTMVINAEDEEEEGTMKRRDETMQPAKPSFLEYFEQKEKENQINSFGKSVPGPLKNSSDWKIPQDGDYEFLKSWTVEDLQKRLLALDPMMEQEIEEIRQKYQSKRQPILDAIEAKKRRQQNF

As a reminder, the IC50 is the concentration at which inhibition is half-maximal. Low values mean inhibition by little substance, high ones a need for much substance. Take `CN1C(=O)C(c2c(F)cccc2F)N(C)c2nc(Nc3ccc(S(N)(=O)=O)cc3)ncc21` (centres unmarked) [IHMT-MST1-39]: the values for the 50% inhibitory concentration (IC50) (on MST2; in experiment [1]) were 0.109 µM and 0.042 µM, respectively.
